target: melatonin receptor; test: Inhibition of 2-[^125 I]iodomelatonin binding in forebrain homogenate of 7-day-old chicken; design: species or system chicken (white leghorn); conditions: 80 pM 2-[^125 I]iodomelatonin, 90 minutes at 25° C., 7-day-old chicken forebrain homogenate, log-probit analysis; read-out: IC50, action of inhibiting 2-[^125 I]iodomelatonin binding
Procedure: The farebrains of 7-day-old chicken (white leghorn) were homogenized with ice-cold assay buffer (50 mM Tris-HCl, pH 7.7 at 25° C.) and centrifuged at 44,000×g for 10 minutes at 4° C. The pellet was washed once with the same buffer and stored at -30° C. until use. For the assay, the frozen tissue pellet was thawed and homogenized with the assay buffer to make a protein concentration of 0.3-0.4 mg/ml. […] The reaction was terminated by adding 3 ml of ice-cold assay buffer immediately followed by vacuum filtration on Whatman GF/B which was further washed twice with 3 ml of ice-cold assay buffer. The radioactivity on the filter was determined by means of γ-counter.

| IC50 [nM] | Structure (SMILES) |
| --- | --- |
| 0.72 | COc1ccc2c(c1)/C(=C/CNC(=O)C(F)(F)F)CCC2 [compound 33] |
| 0.95 | CC(=O)NCCC1CCCc2ccc(O)cc21 (stereo not drawn) [compound 35] |
| 0.7 | COc1ccc2c(c1)[C@H](CCNC(C)=O)CC2 [compound 66] |

From patent US6235789A, “Benzocycloalkene compounds, their production and use” (Takeda Chemical Industries, Ltd., priority 1994, dated 2001)
